From patent US7612211B2, “Benzimidazole TRPV1 inhibitors” (Janssen Pharmaceutica N.V., priority 2006, dated 2009)

Target: T1, hTRPV1 (Homo sapiens, UniProt Q8NER1)
T1 construct: expressed in transfected cells; host or cells: HEK293
Test: Human TRPV1 (hTRPV1) functional assay, FLIPR intracellular Ca2+, capsaicin challenge
Assay type: cell-based
Details: HEK293 cells expressing hTRPV1, capsaicin 0.030 μM challenge; for inhibition at 0.5 µM: test concentration of 0.5 μm, read-out: percent inhibition (symbol a); for IC50: derived from a variety of test concentrations, read-out: IC50 value (symbol c)
Procedure: The functional activity of the test compounds was determined by measuring changes in intracellular calcium concentration using a Ca^++-sensitive fluorescent dye and FLIPR™ technology. Increases in Ca^++ concentration were readily detected upon challenge with capsaicin.
HEK293 cells expressing hTRPV1 were grown on poly-D-lysine coated 384 well black-walled plates (BD 354663) and 1 day later loaded with Calcium 3 Dye for 35 min at 37° C., 5% CO2 and then for 25 min at room temperature, and subsequently tested for agonist-induced increases in intracellular Ca^2+ levels using FLIPR™ technology. Cells were challenged with test compounds (at varying concentrations) and intracellular Ca^2+ was measured for 5 min prior to the addition of capsaicin to all wells to achieve a final concentration of 0.030 μM eliciting ˜80% maximal response.
EC50 or IC50 values were determined from concentration-response studies, which were generated using the average of quadruplicate wells for each data point. The symbol “a” represents percent inhibition obtained at a test concentration of 0.5 μm; the symbol “b” represents percent inhibition obtained at a test concentration of 0.2 μm; the symbol “c” represents an IC50 value (nM) derived from a variety of test concentrations. The term “NA” means that the result is not applicable for a particular compound.

T1 sequence (Q8NER1 whole entry): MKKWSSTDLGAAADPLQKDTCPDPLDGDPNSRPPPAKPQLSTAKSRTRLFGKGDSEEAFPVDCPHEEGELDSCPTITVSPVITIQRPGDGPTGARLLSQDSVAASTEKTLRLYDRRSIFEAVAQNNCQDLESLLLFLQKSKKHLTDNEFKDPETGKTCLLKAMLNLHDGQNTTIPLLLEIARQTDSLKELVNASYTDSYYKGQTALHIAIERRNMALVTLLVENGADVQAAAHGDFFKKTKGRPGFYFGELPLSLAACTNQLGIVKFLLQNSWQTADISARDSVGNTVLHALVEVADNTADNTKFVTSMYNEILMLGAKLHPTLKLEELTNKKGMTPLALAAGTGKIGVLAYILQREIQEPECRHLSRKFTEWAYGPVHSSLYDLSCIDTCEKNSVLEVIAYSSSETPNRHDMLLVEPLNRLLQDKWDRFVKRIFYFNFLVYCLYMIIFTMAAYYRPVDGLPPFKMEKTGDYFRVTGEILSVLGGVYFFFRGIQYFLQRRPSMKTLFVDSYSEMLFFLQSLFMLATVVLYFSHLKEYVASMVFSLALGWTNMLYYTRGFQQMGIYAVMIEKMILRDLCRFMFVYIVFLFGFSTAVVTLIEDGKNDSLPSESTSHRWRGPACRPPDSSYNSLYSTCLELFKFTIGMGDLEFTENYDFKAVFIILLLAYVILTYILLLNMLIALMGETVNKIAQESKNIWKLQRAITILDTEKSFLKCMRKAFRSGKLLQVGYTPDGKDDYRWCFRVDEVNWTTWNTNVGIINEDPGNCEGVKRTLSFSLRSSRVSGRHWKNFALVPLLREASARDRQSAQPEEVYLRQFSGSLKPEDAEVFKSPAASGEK

Compound | inhibition at 0.5 µM [%] | IC50 [nM] | inhibition at 0.2 µM (test concentration of 0.2 μm, read-out: percent inhibition (symbol b)) [%]
NS(=O)(=O)c1ccccc1-c1ccc2[nH]c(COc3ccccc3F)nc2c1 [Cpd 3, 2-[2-(2-fluoro-phenoxymethyl)-1H-benzoimidazol-5-yl]-benzenesulfonamide] | 43 |  | 
NS(=O)(=O)c1ccccc1-c1ccc2[nH]c(COc3cccc(F)c3)nc2c1 [Cpd 4, 2-[2-(3-fluoro-phenoxymethyl)-1H-benzoimidazol-5-yl]-benzenesulfonamide] | 67 |  | 
NS(=O)(=O)c1ccccc1-c1ccc2[nH]c(COc3ccc(F)cc3)nc2c1 [Cpd 5, 2-[2-(4-fluoro-phenoxymethyl)-1H-benzoimidazol-5-yl]-benzenesulfonamide] | 71 |  | 
NS(=O)(=O)c1ccccc1-c1ccc2[nH]c(COc3cccc(Cl)c3)nc2c1 [Cpd 6, 2-[2-(3-chloro-phenoxymethyl)-1H-benzoimidazol-5-yl]-benzenesulfonamide] | 87 | 102 | 
NS(=O)(=O)c1ccccc1-c1ccc2[nH]c(COc3ccc(Cl)cc3)nc2c1 [Cpd 7, 2-[2-(4-chloro-phenoxymethyl)-1H-benzoimidazol-5-yl]-benzenesulfonamide] |  | 13 | 
NS(=O)(=O)c1ccccc1-c1ccc2[nH]c(COc3ccc(Br)cc3)nc2c1 [Cpd 8, 2-[2-(4-bromo-phenoxymethyl)-1H-benzoimidazol-5-yl]-benzenesulfonamide] |  | 6.6 | 
NS(=O)(=O)c1ccccc1-c1ccc2[nH]c(COc3ccc(F)cc3F)nc2c1 [Cpd 9, 2-[2-(2,4-difluoro-phenoxymethyl)-1H-benzoimidazol-5-yl]-benzenesulfonamide] |  | 110 | 
NS(=O)(=O)c1ccccc1-c1ccc2[nH]c(COc3ccc(F)c(F)c3)nc2c1 [Cpd 10, 2-[2-(3,4-difluoro-phenoxymethyl)-1H-benzoimidazol-5-yl]-benzenesulfonamide] |  | 120 | 
NS(=O)(=O)c1ccccc1-c1ccc2[nH]c(COc3ccc(F)c(Cl)c3)nc2c1 [Cpd 11, 2-[2-(3-chloro-4-fluoro-phenoxymethyl)-1H-benzoimidazol-5-yl]-benzenesulfonamide] |  | 38 | 
NS(=O)(=O)c1ccccc1-c1ccc2[nH]c(COc3ccc(F)c(C(F)(F)F)c3)nc2c1 [Cpd 12, 2-[2-(4-fluoro-3-trifluoromethyl-phenoxymethyl)-1H-benzoimidazol-5-yl]-benzenesulfonamide] |  | 18 | 
NS(=O)(=O)c1ccccc1-c1ccc2[nH]c(COc3cccc(C(F)(F)F)c3)nc2c1 [Cpd 13, 2-[2-(3-trifluoromethyl-phenoxymethyl)-1H-benzoimidazol-5-yl]-benzenesulfonamide] |  | 61 | 
NS(=O)(=O)c1ccccc1-c1ccc2[nH]c(COc3ccc(F)c(F)c3F)nc2c1 [Cpd 14, 2-[2-(2,3,4-trifluoro-phenoxymethyl)-1H-benzoimidazol-5-yl]-benzenesulfonamide] |  | 110 | 
NS(=O)(=O)c1ccccc1-c1ccc2[nH]c(COc3cccc(OC(F)(F)F)c3)nc2c1 [Cpd 15, 2-[2-(3-trifluoromethoxy-phenoxymethyl)-1H-benzoimidazol-5-yl]-benzenesulfonamide] |  | 25 | 
CNS(=O)(=O)c1ccccc1-c1ccc2[nH]c(COc3ccc(Cl)cc3)nc2c1 [Cpd 18, 2-[2-(4-chloro-phenoxymethyl)-1H-benzoimidazol-5-yl]-N-methyl-benzenesulfonamide] | 97 | 71 | 
CNS(=O)(=O)c1ccccc1-c1ccc2[nH]c(COc3ccc(S(C)(=O)=O)cc3)nc2c1 [Cpd 19, 2-[2-(4-methanesulfonyl-phenoxymethyl)-1H-benzoimidazol-5-yl]-N-methyl-benzenesulfonamide] | 100 | 8 | 
CNS(=O)(=O)c1ccccc1-c1ccc2[nH]c(COc3ccc(S(=O)(=O)C(F)(F)F)cc3)nc2c1 [Cpd 20, N-methyl-2-[2-(4-trifluoromethanesulfonyl-phenoxymethyl)-1H-benzoimidazol-5-yl]-benzenesulfonamide] | 100 | 20 | 
CC(C)(O)c1ccccc1-c1ccc2[nH]c(COc3ccc(OC(F)(F)F)cc3)nc2c1 [Cpd 22, 2-{2-[2-(4-trifluoromethoxy-phenoxymethyl)-1H-benzoimidazol-5-yl]-phenyl}-propan-2-ol] | 100 | 4 | 
CC(C)(O)c1ccccc1-c1ccc2[nH]c(COc3ccc(Cl)cc3)nc2c1 [Cpd 23, 2-{2-[2-(4-chloro-phenoxymethyl)-1H-benzoimidazol-5-yl]-phenyl}-propan-2-ol] | 100 | 19 | 
CC(C)(O)c1ccccc1-c1ccc2[nH]c(COc3cccc(C(F)(F)F)c3)nc2c1 [Cpd 24, 2-{2-[2-(3-trifluoromethyl-phenoxymethyl)-1H-benzoimidazol-5-yl]-phenyl}-propan-2-ol] | 92 | 156 | 
CC(C)(O)c1ccccc1-c1ccc2[nH]c(COc3ccc(S(C)(=O)=O)cc3)nc2c1 [Cpd 25, 2-{2-[2-(4-methanesulfonyl-phenoxymethyl)-1H-benzoimidazol-5-yl]-phenyl}-propan-2-ol] | 100 | 13 | 
NS(=O)(=O)c1ccccc1-c1ccc2[nH]c(COc3ccccc3)nc2c1 [Cpd 26, 2-(2-phenoxymethyl-1H-benzoimidazol-5-yl)-benzenesulfonamide] | 87 | 177 | 
Cc1ccc(OCc2nc3cc(-c4ccccc4S(N)(=O)=O)ccc3[nH]2)cc1 [Cpd 27, 2-(2-p-tolyloxymethyl-1H-benzoimidazol-5-yl)-benzenesulfonamide] | 98 | 12 | 
CC(C)c1ccc(OCc2nc3cc(-c4ccccc4S(N)(=O)=O)ccc3[nH]2)cc1 [Cpd 28, 2-[2-(4-isopropyl-phenoxymethyl)-1H-benzoimidazol-5-yl]-benzenesulfonamide] | 98 | 8.9 | 
NS(=O)(=O)c1ccccc1-c1ccc2[nH]c(COc3ccc(Cl)c(Cl)c3)nc2c1 [Cpd 29, 2-[2-(3,4-dichloro-phenoxymethyl)-1H-benzoimidazol-5-yl]-benzenesulfonamide] | 98 | 22 | 
NS(=O)(=O)c1ccccc1-c1ccc2[nH]c(COc3ccc(Cl)c(C(F)(F)F)c3)nc2c1 [Cpd 30, 2-[2-(4-chloro-3-trifluoromethyl-phenoxymethyl)-1H-benzoimidazol-5-yl]-benzenesulfonamide] | 99 | 13 | 
NS(=O)(=O)c1ccccc1-c1ccc2[nH]c(COc3cc(C(F)(F)F)cc(C(F)(F)F)c3)nc2c1 [Cpd 31, 2-[2-(3,5-bis-trifluoromethyl-phenoxymethyl)-1H-benzoimidazol-5-yl]-benzenesulfonamide] | 97 | 10.6 | 
CC(C)(C)c1ccc(OCc2nc3cc(-c4ccccc4S(N)(=O)=O)ccc3[nH]2)cc1 [Cpd 32, 2-[2-(4-tert-butyl-phenoxymethyl)-1H-benzoimidazol-5-yl]-benzenesulfonamide] |  | 6 | 100
CCOc1ccc(OCc2nc3cc(-c4ccccc4S(N)(=O)=O)ccc3[nH]2)cc1 [Cpd 33, 2-[2-(4-ethoxy-phenoxymethyl)-1H-benzoimidazol-5-yl]-benzenesulfonamide] | 100 | 44 | 
